Assays:
Assay in all cases: KINOMEscan
Format in all cases: binding
Conditions in all cases: read-out: % control activity remaining
PHKG1 = biological target: T1, PHKG1 (Homo sapiens, UniProt Q16816)
T1 construct: purchased Eurofins DiscoverX KINOMEscan

[1] = biological target: T2, RSK1(Kin.Dom.1-N-terminal) (Homo sapiens, UniProt Q15418)
T2 construct: RSK1(Kin.Dom.1-N-terminal); purchased Eurofins DiscoverX KINOMEscan

ADCK4 = biological target: T3, ADCK4 (Homo sapiens, UniProt Q96D53)
T3 construct: purchased Eurofins DiscoverX KINOMEscan
T3 sequence (Q96D53 1-544): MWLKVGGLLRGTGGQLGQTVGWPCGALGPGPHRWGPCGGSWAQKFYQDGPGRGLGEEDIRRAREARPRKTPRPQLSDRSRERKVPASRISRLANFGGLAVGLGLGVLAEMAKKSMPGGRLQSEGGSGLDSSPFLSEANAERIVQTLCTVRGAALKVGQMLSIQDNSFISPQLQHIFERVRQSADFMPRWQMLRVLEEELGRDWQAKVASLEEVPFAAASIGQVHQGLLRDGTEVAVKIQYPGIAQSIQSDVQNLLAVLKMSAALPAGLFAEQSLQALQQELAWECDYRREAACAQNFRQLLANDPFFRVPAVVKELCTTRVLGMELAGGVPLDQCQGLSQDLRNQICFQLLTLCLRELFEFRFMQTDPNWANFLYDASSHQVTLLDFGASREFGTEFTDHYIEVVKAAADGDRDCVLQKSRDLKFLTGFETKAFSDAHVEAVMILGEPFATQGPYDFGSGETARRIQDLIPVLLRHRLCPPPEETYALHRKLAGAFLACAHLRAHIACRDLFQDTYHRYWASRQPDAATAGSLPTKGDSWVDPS

[2] = biological target: T4, RSK2(Kin.Dom.2-C-terminal) (Homo sapiens, UniProt P51812)
T4 construct: RSK2(Kin.Dom.2-C-terminal); purchased Eurofins DiscoverX KINOMEscan
T4 sequence (P51812 422-679 limits assumed): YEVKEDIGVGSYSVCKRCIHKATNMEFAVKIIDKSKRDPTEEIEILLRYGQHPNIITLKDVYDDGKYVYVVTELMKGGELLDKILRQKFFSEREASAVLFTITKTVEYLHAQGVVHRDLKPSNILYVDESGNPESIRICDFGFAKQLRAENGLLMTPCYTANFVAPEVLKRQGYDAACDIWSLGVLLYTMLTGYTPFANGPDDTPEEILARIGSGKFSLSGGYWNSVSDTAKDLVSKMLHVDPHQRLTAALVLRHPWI

PAK7 = biological target: T5, PAK7 (Homo sapiens, UniProt Q9P286)
T5 construct: purchased Eurofins DiscoverX KINOMEscan
T5 sequence (Q9P286 whole entry): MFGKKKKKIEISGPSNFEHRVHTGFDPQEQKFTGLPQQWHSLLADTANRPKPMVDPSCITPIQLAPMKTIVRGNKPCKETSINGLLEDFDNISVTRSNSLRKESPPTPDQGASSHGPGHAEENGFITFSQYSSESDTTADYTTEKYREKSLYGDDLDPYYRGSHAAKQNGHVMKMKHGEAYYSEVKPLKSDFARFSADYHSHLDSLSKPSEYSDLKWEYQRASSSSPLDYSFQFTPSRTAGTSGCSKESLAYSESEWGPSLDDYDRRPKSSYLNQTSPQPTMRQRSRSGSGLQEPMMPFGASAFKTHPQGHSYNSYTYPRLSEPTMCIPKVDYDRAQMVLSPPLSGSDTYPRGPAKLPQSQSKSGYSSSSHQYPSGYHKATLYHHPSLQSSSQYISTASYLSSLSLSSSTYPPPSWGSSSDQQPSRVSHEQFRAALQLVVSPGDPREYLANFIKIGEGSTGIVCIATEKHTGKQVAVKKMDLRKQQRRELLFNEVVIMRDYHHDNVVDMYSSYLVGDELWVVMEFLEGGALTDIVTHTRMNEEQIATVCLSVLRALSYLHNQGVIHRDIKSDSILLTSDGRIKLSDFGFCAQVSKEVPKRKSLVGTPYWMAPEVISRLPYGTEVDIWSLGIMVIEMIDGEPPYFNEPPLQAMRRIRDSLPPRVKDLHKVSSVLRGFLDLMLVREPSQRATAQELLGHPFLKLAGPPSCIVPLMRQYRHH

ANKK1 = biological target: T6, ANKK1 (Homo sapiens, UniProt Q8NFD2)
T6 construct: purchased Eurofins DiscoverX KINOMEscan
T6 sequence (Q8NFD2 1-765): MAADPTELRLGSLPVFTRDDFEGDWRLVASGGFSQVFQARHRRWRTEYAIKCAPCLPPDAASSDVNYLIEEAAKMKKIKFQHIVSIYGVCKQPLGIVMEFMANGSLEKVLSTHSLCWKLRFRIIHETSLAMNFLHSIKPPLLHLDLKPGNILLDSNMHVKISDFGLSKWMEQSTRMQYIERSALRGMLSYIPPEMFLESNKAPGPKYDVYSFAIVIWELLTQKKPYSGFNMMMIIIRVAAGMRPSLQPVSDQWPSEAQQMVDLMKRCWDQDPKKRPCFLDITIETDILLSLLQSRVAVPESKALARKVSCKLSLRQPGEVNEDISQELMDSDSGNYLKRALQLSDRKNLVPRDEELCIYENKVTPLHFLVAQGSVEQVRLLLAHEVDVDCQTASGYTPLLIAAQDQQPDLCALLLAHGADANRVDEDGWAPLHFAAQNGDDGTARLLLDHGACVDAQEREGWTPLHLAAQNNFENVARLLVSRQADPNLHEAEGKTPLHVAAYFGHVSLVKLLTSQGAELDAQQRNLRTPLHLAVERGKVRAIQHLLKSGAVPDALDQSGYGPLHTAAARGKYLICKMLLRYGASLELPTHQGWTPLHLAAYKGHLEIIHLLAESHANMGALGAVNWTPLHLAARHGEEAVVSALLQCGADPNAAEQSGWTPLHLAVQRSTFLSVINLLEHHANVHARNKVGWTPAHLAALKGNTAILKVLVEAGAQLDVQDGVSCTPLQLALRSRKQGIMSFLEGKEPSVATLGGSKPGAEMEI

PIK3CA(E545A) = biological target: T7, PIK3CA(E545A) (Homo sapiens, UniProt P42336, E545A)
T7 construct: purchased Eurofins DiscoverX KINOMEscan
T7 sequence (P42336 whole entry E545A): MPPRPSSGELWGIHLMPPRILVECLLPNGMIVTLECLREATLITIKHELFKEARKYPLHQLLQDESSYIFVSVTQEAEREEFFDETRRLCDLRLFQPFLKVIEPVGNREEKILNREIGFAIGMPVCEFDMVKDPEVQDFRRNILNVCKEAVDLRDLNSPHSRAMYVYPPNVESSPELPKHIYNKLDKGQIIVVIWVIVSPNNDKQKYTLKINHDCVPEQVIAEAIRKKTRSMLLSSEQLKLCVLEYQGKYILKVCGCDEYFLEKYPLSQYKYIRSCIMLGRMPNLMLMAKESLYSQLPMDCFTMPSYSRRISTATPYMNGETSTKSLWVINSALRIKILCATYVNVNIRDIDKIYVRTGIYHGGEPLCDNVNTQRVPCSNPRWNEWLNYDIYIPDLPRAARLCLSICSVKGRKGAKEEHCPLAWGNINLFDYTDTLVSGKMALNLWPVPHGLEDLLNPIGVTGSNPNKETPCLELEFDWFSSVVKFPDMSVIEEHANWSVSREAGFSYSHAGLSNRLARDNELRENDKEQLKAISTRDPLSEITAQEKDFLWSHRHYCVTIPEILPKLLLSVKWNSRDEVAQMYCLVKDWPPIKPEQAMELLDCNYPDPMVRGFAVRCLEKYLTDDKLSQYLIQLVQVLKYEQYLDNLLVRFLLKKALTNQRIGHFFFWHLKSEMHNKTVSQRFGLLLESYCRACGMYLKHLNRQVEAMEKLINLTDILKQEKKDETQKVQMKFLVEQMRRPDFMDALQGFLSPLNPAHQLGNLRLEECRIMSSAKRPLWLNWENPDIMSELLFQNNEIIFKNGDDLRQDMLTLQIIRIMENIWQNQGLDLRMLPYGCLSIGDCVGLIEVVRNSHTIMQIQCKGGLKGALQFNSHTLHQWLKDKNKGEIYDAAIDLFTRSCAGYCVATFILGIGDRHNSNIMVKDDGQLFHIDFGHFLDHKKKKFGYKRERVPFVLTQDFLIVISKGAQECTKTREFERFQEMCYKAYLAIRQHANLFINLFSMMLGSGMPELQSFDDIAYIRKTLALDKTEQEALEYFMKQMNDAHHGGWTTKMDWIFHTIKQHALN

KIT = biological target: T8, KIT (Homo sapiens, UniProt P10721)
T8 construct: purchased Eurofins DiscoverX KINOMEscan
T8 sequence (P10721 26-976): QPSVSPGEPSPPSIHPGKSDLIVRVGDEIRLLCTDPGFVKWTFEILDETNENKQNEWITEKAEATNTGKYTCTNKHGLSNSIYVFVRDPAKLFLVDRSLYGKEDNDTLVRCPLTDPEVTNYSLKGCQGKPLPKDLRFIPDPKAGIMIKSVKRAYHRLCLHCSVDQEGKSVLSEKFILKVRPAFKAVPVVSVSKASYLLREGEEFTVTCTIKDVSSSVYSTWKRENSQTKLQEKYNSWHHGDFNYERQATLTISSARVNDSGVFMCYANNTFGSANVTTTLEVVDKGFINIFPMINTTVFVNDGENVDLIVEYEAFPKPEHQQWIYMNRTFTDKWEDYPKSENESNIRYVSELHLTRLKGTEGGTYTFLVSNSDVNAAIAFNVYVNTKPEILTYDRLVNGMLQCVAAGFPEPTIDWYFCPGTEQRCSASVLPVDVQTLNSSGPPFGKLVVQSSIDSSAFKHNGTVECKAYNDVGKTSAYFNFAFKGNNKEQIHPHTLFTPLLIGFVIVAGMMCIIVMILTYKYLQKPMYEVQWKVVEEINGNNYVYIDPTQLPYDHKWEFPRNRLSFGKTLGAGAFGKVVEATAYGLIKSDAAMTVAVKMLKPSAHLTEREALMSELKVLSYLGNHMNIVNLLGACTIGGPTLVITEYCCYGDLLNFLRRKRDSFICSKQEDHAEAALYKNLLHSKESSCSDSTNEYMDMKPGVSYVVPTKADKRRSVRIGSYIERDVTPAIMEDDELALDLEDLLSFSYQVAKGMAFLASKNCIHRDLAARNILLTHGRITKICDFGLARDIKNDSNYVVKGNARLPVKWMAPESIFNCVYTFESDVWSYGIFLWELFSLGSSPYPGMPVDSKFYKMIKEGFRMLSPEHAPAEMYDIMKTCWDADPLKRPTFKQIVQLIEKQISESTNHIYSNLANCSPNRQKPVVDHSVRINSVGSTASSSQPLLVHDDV

BRSK2 = biological target: T9, BRSK2 (Homo sapiens, UniProt Q8IWQ3)
T9 construct: purchased Eurofins DiscoverX KINOMEscan
T9 sequence (Q8IWQ3 1-736): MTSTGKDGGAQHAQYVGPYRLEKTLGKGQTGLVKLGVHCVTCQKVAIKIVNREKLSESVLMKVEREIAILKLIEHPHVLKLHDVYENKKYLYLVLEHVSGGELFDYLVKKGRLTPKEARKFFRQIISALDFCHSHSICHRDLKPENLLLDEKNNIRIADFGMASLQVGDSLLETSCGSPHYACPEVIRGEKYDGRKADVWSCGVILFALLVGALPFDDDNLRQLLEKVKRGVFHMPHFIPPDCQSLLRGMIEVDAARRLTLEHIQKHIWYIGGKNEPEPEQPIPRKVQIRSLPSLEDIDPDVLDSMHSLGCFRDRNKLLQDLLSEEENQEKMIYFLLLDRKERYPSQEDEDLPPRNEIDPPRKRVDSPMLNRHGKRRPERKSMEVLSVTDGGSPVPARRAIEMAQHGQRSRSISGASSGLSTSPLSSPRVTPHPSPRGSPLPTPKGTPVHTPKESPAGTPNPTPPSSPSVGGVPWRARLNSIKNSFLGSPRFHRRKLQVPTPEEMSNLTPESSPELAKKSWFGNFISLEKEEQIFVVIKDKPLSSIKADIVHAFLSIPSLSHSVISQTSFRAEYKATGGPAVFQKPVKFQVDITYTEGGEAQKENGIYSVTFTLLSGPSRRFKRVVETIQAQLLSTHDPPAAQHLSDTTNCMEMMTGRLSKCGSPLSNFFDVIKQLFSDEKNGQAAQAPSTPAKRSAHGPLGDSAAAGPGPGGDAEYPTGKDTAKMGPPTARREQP

T1 sequence (Q16816 whole entry): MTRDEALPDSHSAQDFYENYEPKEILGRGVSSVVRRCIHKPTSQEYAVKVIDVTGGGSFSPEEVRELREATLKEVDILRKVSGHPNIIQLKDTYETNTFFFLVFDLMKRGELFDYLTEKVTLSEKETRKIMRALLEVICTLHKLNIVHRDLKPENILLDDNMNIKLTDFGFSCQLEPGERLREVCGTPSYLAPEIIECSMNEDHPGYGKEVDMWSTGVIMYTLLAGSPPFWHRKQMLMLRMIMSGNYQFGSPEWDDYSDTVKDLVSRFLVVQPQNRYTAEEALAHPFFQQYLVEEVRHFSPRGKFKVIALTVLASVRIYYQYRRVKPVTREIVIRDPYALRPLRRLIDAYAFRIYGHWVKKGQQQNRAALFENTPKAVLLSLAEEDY
T2 sequence (Q15418 62-321 limits assumed): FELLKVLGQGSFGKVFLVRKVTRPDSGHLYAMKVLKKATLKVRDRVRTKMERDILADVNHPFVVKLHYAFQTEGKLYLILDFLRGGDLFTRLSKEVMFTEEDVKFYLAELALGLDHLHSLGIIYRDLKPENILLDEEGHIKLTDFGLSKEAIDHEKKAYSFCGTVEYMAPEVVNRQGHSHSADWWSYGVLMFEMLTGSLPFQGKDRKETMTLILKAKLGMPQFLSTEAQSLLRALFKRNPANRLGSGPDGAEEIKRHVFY

Compound | remaining binding at 1 µM (PHKG1) [%] | remaining binding at 1 µM [1] [%] | remaining binding at 1 µM (ADCK4) [%] | remaining binding at 1 µM [2] [%] | remaining binding at 1 µM (PAK7) [%] | remaining binding at 1 µM (ANKK1) [%] | remaining binding at 1 µM (PIK3CA(E545A)) [%] | remaining binding at 1 µM (KIT) [%] | remaining binding at 1 µM (BRSK2) [%]
CN1CCC(CNc2cc(Cl)nn3c(-c4cc5nc(Nc6ccccc6)[nH]c5cc4F)cnc23)CC1 [compound 31, 6-Chloro-3-(6-fluoro-2-(phenylamino)-1H-benzo[d]imidazol-5-yl)-N-((1-methylpiperidin-4-yl)methyl)imidazo[1,2-b]pyridazin-8-amine] | 92 | 100 | 77 | 73 | 95 | 100 | 78 | 68 | 84
O=C(CN1CCOCC1)N[C@H]1CC[C@H](Nc2cc(Cl)nn3c(-c4ccc5[nH]ncc5c4)cnc23)CC1 [compound 26] | 17 | 54 | 84 | 100 | 93 | 48 | 100 | 0 | 98
Clc1cc(NCC2CC2)c2ncc(-c3ccc4[nH]ncc4c3)n2n1 [compound 2, 6-Chloro-N-(cyclopropylmethyl)-3-(1H-indazol-5-yl)imidazo[1,2-b]pyridazin-8-amine] | 91 | 72 | 93 | 89 | 98 | 75 | 88 | 1.6 | 100

From paper PMC6437697 (Journal of Medicinal Chemistry, 2019)
